Measured values as given in US7179830B2, “Substituted thienoimidazoles useful for disease treatment and prevention” (Sanofi-aventis Deutschland GmbH, priority 2003, dated 2007).
Counter-ions that a name gives are not always drawn.

Columns and labels:
Type in all cases: cell-based
[1] = target: T1, NHE3 (Homo sapiens, UniProt P48764); experiment: Determination of the NHE inhibition: recovery of intracellular pH after acidification (BCECF fluorescence), NHE3; conditions: for IC50: pH recovery registered at three minutes
T1 construct: host or cells: cells, not specified
T1 sequence (P48764 26-834): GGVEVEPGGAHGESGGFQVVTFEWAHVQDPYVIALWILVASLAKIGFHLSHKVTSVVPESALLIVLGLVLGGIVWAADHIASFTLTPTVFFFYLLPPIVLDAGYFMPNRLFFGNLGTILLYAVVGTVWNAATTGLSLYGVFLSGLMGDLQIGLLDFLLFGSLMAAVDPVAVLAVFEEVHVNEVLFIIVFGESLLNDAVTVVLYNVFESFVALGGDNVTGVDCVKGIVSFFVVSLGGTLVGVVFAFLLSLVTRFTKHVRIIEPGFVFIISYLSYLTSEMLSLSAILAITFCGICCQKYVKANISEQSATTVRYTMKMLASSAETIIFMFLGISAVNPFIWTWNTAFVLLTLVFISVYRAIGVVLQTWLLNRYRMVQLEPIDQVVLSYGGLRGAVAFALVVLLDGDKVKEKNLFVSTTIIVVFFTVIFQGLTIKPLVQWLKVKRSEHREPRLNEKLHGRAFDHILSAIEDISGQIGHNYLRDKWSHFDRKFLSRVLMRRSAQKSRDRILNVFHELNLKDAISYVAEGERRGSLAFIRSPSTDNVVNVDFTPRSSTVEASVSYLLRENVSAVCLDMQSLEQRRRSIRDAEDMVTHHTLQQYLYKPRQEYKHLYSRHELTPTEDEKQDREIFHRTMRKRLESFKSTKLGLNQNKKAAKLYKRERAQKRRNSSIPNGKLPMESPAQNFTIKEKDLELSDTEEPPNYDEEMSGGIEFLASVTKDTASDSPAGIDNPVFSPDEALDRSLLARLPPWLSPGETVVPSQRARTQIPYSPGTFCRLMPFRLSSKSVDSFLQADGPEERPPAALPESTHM
Protocol: [drawing 14] is obtained by adding saturated sodium hydrogencarbonate solution to a suspension of 306 mg of 2-(2-chloro-4-methyl-3-thienylamino)-1H-thieno[3,4-d]imidazole hydrochloride (example 5) in 40 ml of water, in the course of which a pH of 10 is established. After the suspension had been stirred at room temperature for 1 hour, the solid was filtered off and washed repeatedly with water, and the product was dried in an air stream. Colorless crystalline product, decomposition point from 180° C. Pharmacological Data: Determination of the NHE Inhibition Test Description:
This test determined the recovery of the intracellular pH (pHi) after acidification, and this recovery occurs in the case of functional NHE even under bicarbonate-free conditions. To this end, the pHi was determined using the pH-sensitive fluorescent dye BCECF (Calbiochem, the BCECF-AM precursor is used). The cells were initially loaded with BCECF. The BCECF fluorescence was determined in a Ratio Fluorescence Spectrometer (Photon Technology International, South Brunswick, N.J., USA) at excitation wavelengths of 505 and 440 nm and an emission wavelength of 535 nm and converted to the pHi by means of calibration curves. The cells had already been incubated in NH4Cl buffer (pH 7.4) in the course of the BCECF loading (NH4Cl buffer: 115 mM NaCl, 20 mM NH4Cl, 5 mM KCl, 1 mM CaCl2, 1 mM MgSO4, 20 mM Hepes, 5 mM glucose, 1 mg/ml BSA; a pH of 7.4 is established using 1 M NaOH). The intracellular acidification is induced by adding 975 μl of an NH4Cl-free buffer (see below) to 25 μl aliquots of the cells incubated in NH4Cl buffer. The subsequent rate of the pH recovery was registered at two minutes for NHE1, at five minutes for NHE2 and at three minutes for NHE3. For the calculation of the inhibitory potency of the tested substances, the cells were initially investigated in buffers in which complete or absolutely no pH recovery took place. For complete pH recovery (100%), the cells were incubated in Na^+-containing buffer (133.8 mM NaCl, 4.7 mM KCl, 1.25 mM CaCl2, 1.25 mM MgCl2, 0.97 mM Na2HPO4, 0.23 mM NaH2PO4, 5 mM Hepes, 5 mM glucose, a pH of 7.0 is established using 1 M NaOH). For the determination of the 0% value, the cells were incubated in an Na^+-free buffer (133.8 mM choline chloride, 4.7 mM KCl, 1.25 mM CaCl2, 1.25 mM MgCl2, 0.97 mM K2HPO4, 0.23 mM KH2PO4, 5 mM Hepes, 5 mM glucose, a pH of 7.0 is established using 1 M KOH). The substances to be tested were made up in the Na^+-containing buffer. The recovery of the intracellular pH at each tested concentration of a substance was expressed in percent of the maximum recovery. The percentages of the pH recovery were used to calculate the IC50 value of the particular substance for the individual NHE subtypes by means of the program Sigma-Plot.

[2] = target: T2, NHE5 (Homo sapiens, UniProt Q14940); experiment: NHE inhibition, NHE5 subtype; conditions: in a therapeutically utilizable concentration range
T2 sequence (Q14940 1-896): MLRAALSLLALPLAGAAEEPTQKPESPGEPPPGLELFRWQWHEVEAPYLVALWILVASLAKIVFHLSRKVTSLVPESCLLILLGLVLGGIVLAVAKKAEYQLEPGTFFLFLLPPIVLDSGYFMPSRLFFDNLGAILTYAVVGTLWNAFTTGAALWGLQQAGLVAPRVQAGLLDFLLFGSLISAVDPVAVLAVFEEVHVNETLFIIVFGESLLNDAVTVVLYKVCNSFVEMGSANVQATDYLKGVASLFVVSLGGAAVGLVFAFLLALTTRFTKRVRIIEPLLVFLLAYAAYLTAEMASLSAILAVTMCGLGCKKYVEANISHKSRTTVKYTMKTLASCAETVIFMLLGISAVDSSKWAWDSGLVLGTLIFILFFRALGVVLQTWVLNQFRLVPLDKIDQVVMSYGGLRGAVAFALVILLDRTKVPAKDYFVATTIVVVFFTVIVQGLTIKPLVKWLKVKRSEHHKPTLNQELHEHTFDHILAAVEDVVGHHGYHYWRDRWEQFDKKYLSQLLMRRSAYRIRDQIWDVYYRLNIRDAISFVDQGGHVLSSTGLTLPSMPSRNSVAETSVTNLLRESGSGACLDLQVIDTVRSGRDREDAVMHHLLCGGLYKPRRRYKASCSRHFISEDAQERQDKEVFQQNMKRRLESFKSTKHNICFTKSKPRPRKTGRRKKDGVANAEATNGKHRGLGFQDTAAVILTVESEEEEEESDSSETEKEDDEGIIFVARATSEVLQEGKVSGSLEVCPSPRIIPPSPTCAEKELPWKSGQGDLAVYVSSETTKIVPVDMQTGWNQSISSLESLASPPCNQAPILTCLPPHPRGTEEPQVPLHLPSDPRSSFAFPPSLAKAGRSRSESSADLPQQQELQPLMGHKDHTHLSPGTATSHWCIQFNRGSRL

[3] = target: T3, NHE2 (Homo sapiens, UniProt Q9UBY0); experiment: NHE inhibition, NHE2 subtype; conditions: in a therapeutically utilizable concentration range
T3 sequence (Q9UBY0 1-812): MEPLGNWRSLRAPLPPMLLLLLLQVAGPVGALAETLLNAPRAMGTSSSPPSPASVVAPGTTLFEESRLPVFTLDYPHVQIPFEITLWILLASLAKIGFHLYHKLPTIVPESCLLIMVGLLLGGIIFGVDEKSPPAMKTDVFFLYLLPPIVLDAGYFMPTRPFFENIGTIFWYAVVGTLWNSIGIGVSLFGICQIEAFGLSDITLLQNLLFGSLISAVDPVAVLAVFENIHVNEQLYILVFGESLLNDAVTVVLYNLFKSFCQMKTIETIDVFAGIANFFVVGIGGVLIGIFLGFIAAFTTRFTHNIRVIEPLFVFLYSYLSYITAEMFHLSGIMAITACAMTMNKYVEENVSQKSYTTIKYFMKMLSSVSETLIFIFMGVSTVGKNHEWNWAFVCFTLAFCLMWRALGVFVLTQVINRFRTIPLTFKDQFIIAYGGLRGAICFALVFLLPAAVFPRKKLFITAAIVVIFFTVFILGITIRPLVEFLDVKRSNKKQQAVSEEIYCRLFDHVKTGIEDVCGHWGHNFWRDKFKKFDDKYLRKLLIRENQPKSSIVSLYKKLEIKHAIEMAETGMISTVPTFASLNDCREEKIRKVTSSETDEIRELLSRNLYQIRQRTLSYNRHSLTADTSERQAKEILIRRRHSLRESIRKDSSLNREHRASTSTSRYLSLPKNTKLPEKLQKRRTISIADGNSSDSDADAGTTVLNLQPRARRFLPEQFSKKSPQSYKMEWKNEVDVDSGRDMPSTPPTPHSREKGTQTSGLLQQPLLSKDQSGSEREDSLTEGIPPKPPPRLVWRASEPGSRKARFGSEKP
Protocol: (§1) This test determined the recovery of the intracellular pH (pHi) after acidification, and this recovery occurs in the case of functional NHE even under bicarbonate-free conditions. To this end, the pHi was determined using the pH-sensitive fluorescent dye BCECF (Calbiochem, the BCECF-AM precursor is used). The cells were initially loaded with BCECF. The BCECF fluorescence was determined in a Ratio Fluorescence Spectrometer (Photon Technology International, South Brunswick, N.J., USA) at excitation wavelengths of 505 and 440 nm and an emission wavelength of 535 nm and converted to the pHi by means of calibration curves. The cells had already been incubated in NH4Cl buffer (pH 7.4) in the course of the BCECF loading (NH4Cl buffer: 115 mM NaCl, 20 mM NH4Cl, 5 mM KCl, 1 mM CaCl2, 1 mM MgSO4, 20 mM Hepes, 5 mM glucose, 1 mg/ml BSA; a pH of 7.4 is established using 1 M NaOH). The intracellular acidification is induced by adding 975 μl of an NH4Cl-free buffer (see below) to 25 μl aliquots of the cells incubated in NH4Cl buffer. The subsequent rate of the pH recovery was registered at two minutes for NHE1, at five minutes for NHE2 and at three minutes for NHE3. For the calculation of the inhibitory potency of the tested substances, the cells were initially investigated in buffers in which complete or absolutely no pH recovery took place. […]

[4] = target: NHE1 (Homo sapiens, UniProt P19634); experiment: NHE inhibition, NHE1 subtype; conditions: in a therapeutically utilizable concentration range
Sequence of NHE1 (P19634 whole entry, species assumed): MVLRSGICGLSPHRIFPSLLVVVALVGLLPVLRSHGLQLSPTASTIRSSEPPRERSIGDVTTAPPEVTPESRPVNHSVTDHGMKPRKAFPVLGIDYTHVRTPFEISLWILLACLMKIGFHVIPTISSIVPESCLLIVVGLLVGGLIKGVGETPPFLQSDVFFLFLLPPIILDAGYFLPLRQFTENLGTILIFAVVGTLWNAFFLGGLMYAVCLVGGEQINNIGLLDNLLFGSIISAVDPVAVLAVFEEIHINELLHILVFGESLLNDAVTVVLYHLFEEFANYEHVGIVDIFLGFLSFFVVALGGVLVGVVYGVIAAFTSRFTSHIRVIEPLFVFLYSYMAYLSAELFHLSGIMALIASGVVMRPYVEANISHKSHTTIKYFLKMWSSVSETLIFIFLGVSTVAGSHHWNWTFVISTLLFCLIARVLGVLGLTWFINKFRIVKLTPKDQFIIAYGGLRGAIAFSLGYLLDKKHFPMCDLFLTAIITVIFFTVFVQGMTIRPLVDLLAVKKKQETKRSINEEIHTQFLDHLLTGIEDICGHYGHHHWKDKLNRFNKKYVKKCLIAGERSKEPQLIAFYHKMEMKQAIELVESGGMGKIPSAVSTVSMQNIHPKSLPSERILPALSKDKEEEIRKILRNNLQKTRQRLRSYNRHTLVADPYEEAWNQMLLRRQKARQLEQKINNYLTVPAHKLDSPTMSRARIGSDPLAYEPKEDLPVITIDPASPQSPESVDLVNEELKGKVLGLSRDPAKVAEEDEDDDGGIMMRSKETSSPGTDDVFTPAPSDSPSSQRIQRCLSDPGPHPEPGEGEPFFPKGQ
Protocol: as §1

IC50 [1] [nM] | Compound | other results
150 | Cc1csc(Cl)c1Nc1nc2cscc2[nH]1 [Example 5, 2-(2-Chloro-4-methyl-3-thienylamino)-1H-thieno[3,4-d]imidazole hydrochloride] | 
320 | Clc1csc(Cl)c1Nc1nc2cscc2[nH]1 [Example 10, 2-(2,4-Dichloro-3-thienylamino)-1H-thieno[3,4-d]imidazole hydrochloride] | 

More lines, now with the values behind:

Compound | IC50 [1] [nM] | other results
Clc1cccc(Cl)c1Nc1nc2cscc2[nH]1 [Example 2, 2-(2,6-Dichlorophenylamino)-1H-thieno[3,4-d]imidazole hydrochloride] | 220 | 
FC(F)(F)c1ccccc1Nc1nc2cscc2[nH]1 [Example 6, 2-(2-Trifluoromethylphenylamino)-1H-thieno[3,4-d]imidazole hydrochloride] | 6510 | 
Cc1cccc(Cl)c1Nc1nc2cscc2[nH]1 [Example 9, 2-(2-Chloro-6-methylphenylamino)-1H-thieno[3,4-d]imidazole hydrochloride] | 1430 | 
Cc1csc(Cl)c1NC1=NCCN1 [tiamenidine] |  | inhibitory action on NHE3 ([1]; in a therapeutically utilizable concentration range): no relevant inhibitory actions; inhibitory action on NHE5 [2]: no relevant inhibitory actions; inhibitory action on NHE2 [3]: no relevant inhibitory actions; inhibitory action on NHE1 [4]: no relevant inhibitory actions
